Here are results for 97 compounds from ChEMBL document CHEMBL3507680, “University of Dundee, Gates Library screen for HepG2 cell viability”.

The nature of the series: Human HepG2 cell viability assay in 384 well format. It counts as toxicity, cell-based. Set-up: dose 125 nL, time 70.5 hour; cytotoxicity at 70.5 h: concentration not given beside the values. The note with it: HepG2 cells, read-out: Inhibition.

For `Cc1noc([C@H]2CC[C@@H]3[C@@H](CCN3S(=O)(=O)C3CC3)O2)n1`, the cytotoxicity at 70.5 h is -3.57%.
As for `COCC1COCCC12CCN(C(=O)CC1Cc3ccccc3C1)CC2` (configuration not stated), the cytotoxicity at 70.5 h came to 0.913%.
In the case of `COCC1CN(C(=O)Cc2cccs2)Cc2nnn(CC3CC3)c21` (configuration not stated), the cytotoxicity at 70.5 h worked out at 2.3%.
In the case of `Cc1oncc1C(=O)N1CC[C@H]2[C@H]1CCN2Cc1ccccn1` it was -3.13%; in that of `COCC1COCCC12CCN(C(=O)Cc1ccc(F)cc1)CC2` (configuration not stated), -16.1%.
In the case of `O=C(c1cccs1)N1CCN(CC2CC2)c2ncccc2C1` it was -21%; in that of `Cc1noc([C@H]2COC[C@H]3CN(C(=O)Cc4ccsc4)C[C@H]32)n1`, -20.1%; in that of `Cc1noc([C@H]2COC[C@H]3CN(C(=O)Cc4cccs4)C[C@H]32)n1`, -12.6%.
As for `c1nc(N2CCOCC2)nc2c1COCC21CCN(CC2CC2)C1` (configuration not stated), the figure is -6.25%; as for `CCn1nnc2c1C(COC)CN(C(=O)Cc1ccccn1)C2` (configuration not stated), -15.3%; as for `O=C(C[C@@H]1COC[C@H]2CN(Cc3ccncc3)C[C@@H]12)N1CCCC1`, 11.8%.
`CCC(CC)C(=O)N1CCc2nc(N3CCCC3)nc(C)c2CC1`: the cytotoxicity at 70.5 h was -12.2%.
As for `Cc1nc(N2CCCC2)nc2c1CCN(C(=O)CC1CCCC1)CC2`, the figure is -9.31%.
As for `Cc1nc(N2CCOCC2)nc2c1CCN(C(=O)C1CC1)CC2`, the figure is -13.2%.
In the case of `Cn1cc(CN2CC[C@H]3OCC[C@@H](C(=O)NC4CCCC4)[C@@H]3C2)cn1` it was -17.5%.
As to `Cc1nc(N2CCOCC2)nc2c1CCN(C(=O)C1CCCCC1)CC2`, the cytotoxicity at 70.5 h was 0.0722%.
As for `Cc1nc(CN2C(=O)CC[C@@H]3[C@H]2CCN3C(=O)C2CCCO2)cs1` (some centres not stated), the figure is -8.01%; as for `Cc1nc(N2CCCC2)nc2c1CCN(C(=O)C(C)C)CC2`, -15.8%.
In the case of `Cc1nc(N2CCCC2)nc2c1CCN(C(=O)N(C)C)CC2` it was -16.7%; in that of `CC(C)CN1C[C@H]2CCN(C(=O)NC3CCCC3)CC[C@H]2S1(=O)=O`, -9.06%; in that of `COCCN1CC[C@H]2OCC[C@@H](C(=O)Nc3cccnc3)[C@@H]2C1`, 53%.
`CN1CC2(CCNCC2)COc2ccccc2S1(=O)=O`: the cytotoxicity at 70.5 h was -2.93%.
As to `Cn1cc(CN2CC[C@]3(C[C@H](OCc4ccccn4)CO3)C2)cn1`, the cytotoxicity at 70.5 h was -22.4%.
In the case of `CC(C)CNC(=O)[C@H]1C[C@@H]2CN(C(=O)Nc3ccc(F)cc3)C[C@H]1O2` it was -26.4%.
On to `CNc1ncc2c(n1)CN(c1cccc(OC)c1)C2=O`, for which the cytotoxicity at 70.5 h was -13.9%.
In the case of `CNc1ncc2c(n1)CN(Cc1ccc(Cl)cc1)C2=O` it was -9.81%; in that of `CNc1ncc2c(n1)CN(CCc1ccccc1)C2=O`, -12.7%; in that of `CCNc1ncc2c(n1)CN(c1ccc(OC(F)(F)F)cc1)C2=O`, -15.6%.
As for `CCNc1ncc2c(n1)CN(c1ccc(Cl)cc1)C2=O`, the figure is -14.1%; as for `Cc1nn(C)c2cnn(Cc3ccc(C(=O)NCC4CC4)o3)c12`, -10.2%; as for `CCn1nc(C)c2c1cnn2CCNS(=O)(=O)c1ccccc1`, -6.47%.
With `CCn1nc(C)c2c1cnn2CCNS(=O)(=O)c1cccs1`, the cytotoxicity at 70.5 h is 4.54%.
In the case of `Cc1cc(NC(=O)CCn2nc(C)c3ccccc32)n(C)n1` it was -1.96%; in that of `CCn1nc(C)c2ncnc(NCCN3CCOCC3)c21`, -3.9%; in that of `CC(C)NC(=O)c1nnc2ccc(N3CCOCC3)cc2n1`, -5.91%.
As to `CCN1C(=O)C(C)(C)c2cc(NC(=O)c3ccn(CC)n3)ccc21`, the cytotoxicity at 70.5 h is -19.5%.
As for `CCn1nc(C)c(C(=O)Nc2ccc3c(c2)C(C)(C)C(=O)N3C)c1C`, the figure is -0.0352%.
On to `CSc1cccc(NC(C)C(=O)Nc2nccs2)c1` (configuration not stated), for which the cytotoxicity at 70.5 h amounted to 6.07%.
As for `Clc1cccc(Cl)c1CNCCOc1ccccn1`, the figure is 11.6%.
In the case of `CCn1nc(C)c2nc(C)nc(N(C)Cc3ccco3)c21` it was -21.8%; in that of `CCn1nc(C)c2nc(C)nc(NCCCn3cccn3)c21`, -7.44%; in that of `CCCc1nc(NCCCOC)c2c(n1)c(C)nn2CC`, 18.7%.
Regarding `CCCc1nc(N2CCCCCC2)c2c(n1)c(C)nn2CC`, the cytotoxicity at 70.5 h is -11.6%.
As for `CCCc1nc(N2CCSCC2)c2c(n1)c(C)nn2CC`, the cytotoxicity at 70.5 h is -13.1%.
As for `Cc1nn(C)c2c(NCCCn3cccn3)nc(C3CC3)nc12`, the figure is -5.95%.
As for `Cc1nn(C)c2c(N3CCSCC3)nc(C3CC3)nc12`, the figure is -4.86%; as for `CCn1nc(C)c2nc(C(C)C)nc(NCC(=O)N3CCOCC3)c21`, 5.24%.
As for `Cc1nn(C)c2c(N(C)Cc3ccco3)nc(C3CC3)nc12`, the figure is 15.5%.
As for `CCn1nc(C)c2nc(C(C)C)nc(NCCCn3cccn3)c21`, the cytotoxicity at 70.5 h is -4.58%.
As for `CCn1nc(C)c2nc(C(C)C)nc(N3CCC(O)CC3)c21`, the figure is -15.2%; as for `CCn1nc(C)c2nc(C(C)C)nc(N3CCN(C)CC3)c21`, 29.8%.
In the case of `CCn1nc(C)c2nc(C(C)C)nc(N3CCCC3)c21` it was 15.3%; in that of `CCn1nc(C)c2nc(C(C)C)nc(NC)c21`, 20.9%.
As for `NCc1n[nH]c(-c2ccc(F)cc2)n1`, the figure is -0.714%.
Consider `CC(C)n1cc(S(=O)(=O)N2CCCCCC2)cn1`, for which the cytotoxicity at 70.5 h was -2.52%.
As for `COCC(=O)NCCCn1ncc2c(C)cccc21`, the cytotoxicity at 70.5 h was -5.2%.
For `O=C(NCCCn1ccnc1)C1CCC(=O)N1Cc1cccs1` (configuration not stated), the cytotoxicity at 70.5 h was -9.7%.
As for `CCOCCCNC(=O)c1cc(C)nc(N2CCCCC2)n1`, the figure is -6.17%; as for `COc1cccc(CNC(=O)c2cc(C)nc(N3CCCC3)n2)c1`, 17.7%.
As for `O=C(NCCCO)c1nnsc1-c1ccccc1`, the figure is -0.82%; as for `CCOCCCNC(=O)c1cc(OC)c2ccoc2c1`, -1.75%.
In the case of `CCOc1cc(C(=O)N2CCCC2)cc2occc12`, the cytotoxicity at 70.5 h is -8.39%.
Consider `CCn1ccc(NS(=O)(=O)c2cccc(COC)c2)n1`, for which the cytotoxicity at 70.5 h worked out at 8.56%.
In the case of `COCc1cccc(S(=O)(=O)NCc2cnn(C)c2C)c1`, the cytotoxicity at 70.5 h was -9.83%.
As for `COCc1cccc(S(=O)(=O)N2CCSCC2)c1`, the figure is 14%; as for `CN(C)C(=O)C1OC2(CCNCC2)c2ccccc21` (configuration not stated), -6.23%; as for `O=C(NC[C@]12COC[C@H]1CN(Cc1nccs1)C2)c1ccsc1`, -3.53%.
As for `COC1COC2(CCN(Cc3ccc(Cl)cc3)CC2)C1` (configuration not stated), the figure is 6.16%; as for `COCCN1CCC(c2nc3ccc(NC(C)C)cn3n2)CC1`, -17.4%.
In the case of `O=C(NCc1cccs1)[C@@H]1CC[C@@H]2[C@@H](CCN2c2ncccn2)O1` it was -19.1%; in that of `COC1COC2(CCN(Cc3cccc(Cl)c3)CC2)C1` (configuration not stated), -9.84%.
For `COC1COC2(CCN(Cc3cccc(C#N)c3)CC2)C1` (configuration not stated), the cytotoxicity at 70.5 h was -10.7%.
In the case of `O=C(NCc1cccs1)[C@@H]1CC[C@@H]2[C@@H](CCN2C2CCOCC2)O1` it was -14.8%.
As for `CC1c2ncc(COc3cccnc3)n2CCN1C(=O)C1=CCCCC1` (configuration not stated), the cytotoxicity at 70.5 h was -14.2%.
As for `O=C(NCc1ccco1)[C@H]1CC[C@@H]2[C@@H](CCN2C2CCC2)O1`, the figure is -15.1%; as for `COC1COC2(CCN(Cc3ccccc3C)CC2)C1` (configuration not stated), -13.2%.
As for `Cc1cccc(CN2CCC3(CC2)CN(c2cnn(C)c2)C(=O)CO3)n1`, the figure is 41.4%; as for `O=C1CC[C@H]2[C@H](CCN2C(=O)C2CCOC2)N1Cc1ccncc1` (some centres not stated), -20.6%; as for `CCC1=N[C@@]2(CC[C@@H]3CN(CC4CC4)C[C@@H]32)C(=O)N1CC`, -14%.
In the case of `Cn1cc(N2CC3(CCN(Cc4ccoc4)CC3)OCC2=O)cn1` it was -1.7%.
Consider `COC[C@@H]1CCC[C@]12CN(Cc1ccco1)CCO2`, for which the cytotoxicity at 70.5 h was -1.04%.
For `CC1=N[C@@]2(CC[C@@H]3CN(CC(=O)N(C)C)C[C@@H]32)C(=O)N1CC1CC1`, the cytotoxicity at 70.5 h was -2.19%.
In the case of `O=C1CC[C@H]2[C@H](CCN2C(=O)C2CCCO2)N1Cc1cccnc1` (some centres not stated) it was -6.99%; in that of `CN(C)CC(=O)N1CCc2sc(C(=O)NCC3CC3)cc21`, -12.2%; in that of `CCCNC(=O)c1cc2c(s1)CCN2C(=O)CN(C)C`, -14.4%.
In the case of `COC[C@@H]1CCC[C@@]12CN(Cc1ccc(C)s1)CCO2` it was 48.9%.
In the case of `Cc1ncnc2c1CCN(C(=O)Cc1ccccn1)CC2` it was -12.9%; in that of `O[C@@H]1CCN(CC2CC2)[C@H]1Cc1ccccc1`, -23%.
As for `CCc1ncnc2c1CCN(C(=O)c1ccccn1)CC2`, the cytotoxicity at 70.5 h was -24.1%.
In the case of `O=C(c1ccoc1)N1CCOCC2(CCN(C3CCOCC3)C2)C1` (configuration not stated) it was -2.14%; in that of `COCCN1CC[C@@H](OC)[C@@H]1Cc1ccccc1`, 15.6%; in that of `Cc1noc(C)c1CN1CCO[C@H]2[C@H](Oc3ncccc3F)CC[C@@H]21`, -9.05%.
Take `c1cc(CN2CCC3(CC2)COC(COCC2CC2)C3)ccn1` (configuration not stated): the cytotoxicity at 70.5 h was -16.7%.
With `CCc1ccc(CN2CCC3(CC2)CN(c2cnn(C)c2)C(=O)CO3)o1`, the cytotoxicity at 70.5 h is -8.17%.
As for `Cn1cc(CN2C[C@H](Oc3ncccc3F)[C@H]3OCCC[C@H]32)cn1`, the figure is -10.3%; as for `O=C(Nc1cccnc1)[C@@H]1CCO[C@@H]2CCN(Cc3cccnc3)C[C@@H]21`, -22.1%; as for `CO[C@@H]1CCN(Cc2ccccn2)[C@@H]2CN(Cc3ccco3)C[C@@H]21`, 32.3%.
